In patent publication US9695155B2, “Herbicidal substituted pyrimidinyloxy benzene compounds” (E. I. DU PONT DE NEMOURS AND COMPANY, priority 2013, dated 2017):

Tests used:
kochia [1] = test: Test A postemergence; format: in vivo, Kochia scoparia
How it was run: (§1)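 Visual 0–100 rating (100 = complete control) taken about 10 d post-treatment relative to untreated checks. Preemergence: directed soil spray on sown loam/sand pots. Postemergence: seedlings 2–10 cm, 1–2 leaf. Non-phytotoxic solvent formulation with surfactant.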

barnyardgrass [2] = test: Test B flooded paddy test; format: in vivo, Echinochloa crus-galli; details: Flood, 250 g ai/ha; 0 to 100 scale where 0 is no effect and 100 is complete control
How it was run: (§2)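 Greenhouse flooded-pot test: compounds dosed into 3 cm standing water over 2-leaf plants, flood held constant. Rated visually after 13–15 days on 0–100 (complete control = 100); a dash marks no test result.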

wheat = test: Test A postemergence; format: in vivo, Triticum aestivum; details: for Plant response rating, Wheat: 0 to 100 scale, 0 no effect, 100 complete control
How it was run: as §1

galium = test: Test A postemergence; format: in vivo, Galium aparine
How it was run: as §1

sedge, umbrella = test: Test B flooded paddy test; format: in vivo, Cyperus difformis; details: Flood, 250 g ai/ha; 0 to 100 scale where 0 is no effect and 100 is complete control
How it was run: as §2

giant foxtail [3] = test: Test A postemergence; format: in vivo, Setaria faberii
How it was run: as §1

giant foxtail [4] = test: Test A preemergence; format: in vivo, Setaria faberii; details: for Plant response rating, Foxtail, Giant: 0 to 100 scale where 0 is no effect and 100 is complete control
How it was run: as §1

pigweed [5] = test: Test A postemergence; format: in vivo, Amaranthus retroflexus; details: for Plant response rating, Pigweed: 0 to 100 scale, 0 no effect, 100 complete control
How it was run: as §1

blackgrass = test: Test A postemergence; format: in vivo, Alopecurus myosuroides
How it was run: as §1

pigweed [6] = test: Test A preemergence; format: in vivo, Amaranthus retroflexus; details: for Plant response rating, Pigweed: 0 to 100 scale where 0 is no effect and 100 is complete control
How it was run: as §1

ragweed [7] = test: Test A postemergence; format: in vivo, Ambrosia elatior; details: for Plant response rating, Ragweed: 0 to 100 scale, 0 no effect, 100 complete control
How it was run: as §1

barnyardgrass [8] = test: Test A postemergence; format: in vivo, Echinochloa crus-galli
How it was run: as §1

rice = test: Test B flooded paddy test; format: in vivo, Oryza sativa; details: Flood, 250 g ai/ha; 0 to 100 scale where 0 is no effect and 100 is complete control
How it was run: as §2

kochia [9] = test: Test A preemergence; format: in vivo, Kochia scoparia; details: for Plant response rating, Kochia: 0 to 100 scale where 0 is no effect and 100 is complete control
How it was run: as §1

Italian ryegrass [10] = test: Test A postemergence; format: in vivo, Lolium multiflorum; details: for Plant response rating, Ryegrass, Italian: 0 to 100 scale, 0 no effect, 100 complete control
How it was run: as §1

Italian ryegrass [11] = test: Test A preemergence; format: in vivo, Lolium multiflorum; details: for Plant response rating, Ryegrass, Italian: 0 to 100 scale where 0 is no effect and 100 is complete control
How it was run: as §1

barnyardgrass [12] = test: Test A preemergence; format: in vivo, Echinochloa crus-galli; details: for Plant response rating, Barnyardgrass: 0 to 100 scale where 0 is no effect and 100 is complete control
How it was run: as §1

Heteranthera limosa = test: Test B flooded paddy test; format: in vivo; details: Flood, 250 g ai/ha; 0 to 100 scale where 0 is no effect and 100 is complete control
How it was run: as §2

ragweed [13] = test: Test A preemergence; format: in vivo, Ambrosia elatior; details: for Plant response rating, Ragweed: 0 to 100 scale where 0 is no effect and 100 is complete control
How it was run: as §1

corn = test: Test A postemergence; format: in vivo, Zea mays
How it was run: as §1

[14] = 31 g ai/ha, 0 to 100 scale, 0 no effect, 100 complete control
[15] = 125 g ai/ha, 0 to 100 scale where 0 is no effect and 100 is complete control
[16] = 125 g ai/ha, 0 to 100 scale, 0 no effect, 100 complete control
[17] = 31 g ai/ha, visual, approximately 10 days

For N#Cc1cccc(Oc2ncc(Cl)cn2)c1-n1cc(OCC(F)F)cn1 [Compound 99], the “Plant response rating, Kochia” value (kochia [1]; [14]) was 100, the “Plant response rating, Kochia” value (kochia [1]; [15]) was 100 and the “Plant response rating, Barnyardgrass” value (barnyardgrass [2]) was 0. For the same compound, the “Plant response rating, Wheat” value (wheat; 31 g ai/ha) was 50, the “Plant response rating, Galium” value (galium; [14]) was 90 and the “Plant response rating, Galium” value (galium; [15]) was 100. The “Plant response rating, Sedge, Umbrella” value (sedge, umbrella) was 0, the “Plant response rating, Foxtail, Giant” value (giant foxtail [3]; [14]) was 90 and the “Plant response rating, Foxtail, Giant” value (giant foxtail [3]; [15]) was 100. The “Foxtail, Giant plant response rating (0 to 100 scale)” value (“Foxtail … (0 to 100 scale)” for short) (giant foxtail [4]; 31 g ai/ha) was 100, the “Plant response rating, Foxtail, Giant” value (giant foxtail [4]; 125 g ai/ha) was 100 and the “Plant response rating, Pigweed” value (pigweed [5]; 31 g ai/ha) was 100. For the same compound, the “Plant response rating, Blackgrass” value (blackgrass; [14]) was 50, the “Plant response rating, Blackgrass” value (blackgrass; [15]) was 90 and the “Pigweed plant response rating (0 to 100 scale)” value (pigweed [6]; 31 g ai/ha) was 100. The “Plant response rating, Pigweed” value (pigweed [6]; 125 g ai/ha) was 100, the “Plant response rating, Ragweed” value (ragweed [7]; 31 g ai/ha) was 30 and the “Plant response rating, Barnyardgrass” value (barnyardgrass [8]; [14]) was 100. The “Plant response rating, Barnyardgrass” value (barnyardgrass [8]; [15]) was 100, the “Plant response rating, Rice” value (rice) was 0 and the “Kochia plant response rating (0 to 100 scale)” value (kochia [9]; 31 g ai/ha) was 100. The “Plant response rating, Kochia” value (kochia [9]; 125 g ai/ha) was 100, the “Plant response rating, Ryegrass, Italian” value (Italian ryegrass [10]; 31 g ai/ha) was 20 and the “Ryegrass, Italian plant response rating (0 to 100 scale)” value (“Ryegrass … (0 to 100 scale)” for short) (Italian ryegrass [11]; 31 g ai/ha) was 0. The “Plant response rating, Ryegrass, Italian” value (Italian ryegrass [11]; 125 g ai/ha) was 30, the “Barnyardgrass plant response rating (0 to 100 scale)” value (barnyardgrass [12]; 31 g ai/ha) was 80 and the “Plant response rating, Barnyardgrass” value (barnyardgrass [12]; 125 g ai/ha) was 90. The “Plant response rating, Ducksalad” value (Heteranthera limosa) was 0, the “Ragweed plant response rating (0 to 100 scale)” value (ragweed [13]; 31 g ai/ha) was 70 and the “Plant response rating, Ragweed” value (ragweed [13]; 125 g ai/ha) was 90. The “Plant response rating, Corn” value (corn; [14]) was 20 and the “Plant response rating, Corn” value (corn; [15]) was 90.
With FCc1cccc(Oc2ncc(Br)cn2)c1-n1cc(Br)cn1 [Compound 125] the “Plant response rating, Kochia” value (kochia [1]; [14]) was 40, the “Kochia plant response rating” value (kochia [1]; [15]) was 40 and the “Plant response rating, Barnyardgrass” value (barnyardgrass [2]) was 0. For the same compound, the “Plant response rating, Wheat” value (wheat; 31 g ai/ha) was 0, the “Wheat plant response rating” value (wheat; [15]) was 20 and the “Plant response rating, Galium” value (galium; [14]) was 20. For the same compound, the “Galium plant response rating” value (galium; [15]) was 90, the “Plant response rating, Sedge, Umbrella” value (sedge, umbrella) was 70 and the “Plant response rating, Foxtail, Giant” value (giant foxtail [3]; [14]) was 0. For the same compound, the “Foxtail, Giant plant response rating” value (giant foxtail [3]; [15]) was 80, the “Foxtail … (0 to 100 scale)” value (giant foxtail [4]; 31 g ai/ha) was 20 and the “Plant response rating, Foxtail, Giant” value (giant foxtail [4]; 125 g ai/ha) was 100. For the same compound, the “Plant response rating, Pigweed” value (pigweed [5]; 31 g ai/ha) was 30, the “Pigweed plant response rating” value (pigweed [5]; [15]) was 70 and the “Plant response rating, Blackgrass” value (blackgrass; [14]) was 40. The “Blackgrass plant response rating” value (blackgrass; [15]) was 80, the “Pigweed plant response rating (0 to 100 scale)” value (pigweed [6]; 31 g ai/ha) was 70 and the “Plant response rating, Pigweed” value (pigweed [6]; 125 g ai/ha) was 100. The “Plant response rating, Ragweed” value (ragweed [7]; 31 g ai/ha) was 0, the “Ragweed plant response rating” value (ragweed [7]; [15]) was 10 and the “Plant response rating, Barnyardgrass” value (barnyardgrass [8]; [14]) was 0. The “Barnyardgrass plant response rating” value (barnyardgrass [8]; [15]) was 90, the “Plant response rating, Rice” value (rice) was 0 and the “Kochia plant response rating (0 to 100 scale)” value (kochia [9]; 31 g ai/ha) was 20. The “Plant response rating, Kochia” value (kochia [9]; 125 g ai/ha) was 50, the “Plant response rating, Ryegrass, Italian” value (Italian ryegrass [10]; 31 g ai/ha) was 0 and the “Ryegrass, Italian plant response rating” value (Italian ryegrass [10]; [15]) was 10. For the same compound, the “Ryegrass … (0 to 100 scale)” value (Italian ryegrass [11]; 31 g ai/ha) was 0, the “Plant response rating, Ryegrass, Italian” value (Italian ryegrass [11]; 125 g ai/ha) was 20 and the “Barnyardgrass plant response rating (0 to 100 scale)” value (barnyardgrass [12]; 31 g ai/ha) was 10. For the same compound, the “Plant response rating, Barnyardgrass” value (barnyardgrass [12]; 125 g ai/ha) was 80, the “Plant response rating, Ducksalad” value (Heteranthera limosa) was 70 and the “Ragweed plant response rating (0 to 100 scale)” value (ragweed [13]; 31 g ai/ha) was 0. For the same compound, the “Plant response rating, Ragweed” value (ragweed [13]; 125 g ai/ha) was 10, the “Plant response rating, Corn” value (corn; [14]) was 20 and the “Corn plant response rating” value (corn; [15]) was 50.
In the case of Cc1cc(C(F)F)nn1-c1ccccc1Oc1ncc(Cl)cn1 [Compound 267], the “Plant response rating, Kochia” value (kochia [1]; [14]) is reported as 0, the “Plant response rating, Kochia” value (kochia [1]; [16]) is reported as 0 and the “Plant response rating, Barnyardgrass” value (barnyardgrass [2]) is reported as 0. For the same compound, the “Plant response rating, Wheat” value (wheat; 31 g ai/ha) was 0, the “Plant response rating, Wheat” value (wheat; 125 g ai/ha) was 0 and the “Plant response rating, Galium” value (galium; [14]) was 0. The “Plant response rating, Galium” value (galium; [16]) was 10, the “Plant response rating, Sedge, Umbrella” value (sedge, umbrella) was 0 and the “Plant response rating, Foxtail, Giant” value (giant foxtail [3]; [14]) was 0. For the same compound, the “Plant response rating, Foxtail, Giant” value (giant foxtail [3]; [16]) was 0, the “Plant response rating, Foxtail, Giant” value (giant foxtail [4]; [17]) was 0 and the “Foxtail … (0 to 100 scale)” value (giant foxtail [4]; 125 g ai/ha) was 0. The “Plant response rating, Pigweed” value (pigweed [5]; 31 g ai/ha) was 0, the “Plant response rating, Pigweed” value (pigweed [5]; 125 g ai/ha) was 0 and the “Plant response rating, Blackgrass” value (blackgrass; [14]) was 0. For the same compound, the “Plant response rating, Blackgrass” value (blackgrass; [16]) was 0, the “Plant response rating, Pigweed” value (pigweed [6]; [17]) was 0 and the “Pigweed plant response rating (0 to 100 scale)” value (pigweed [6]; 125 g ai/ha) was 0. For the same compound, the “Plant response rating, Ragweed” value (ragweed [7]; 31 g ai/ha) was 0, the “Plant response rating, Ragweed” value (ragweed [7]; 125 g ai/ha) was 0 and the “Plant response rating, Barnyardgrass” value (barnyardgrass [8]; [14]) was 0. For the same compound, the “Plant response rating, Barnyardgrass” value (barnyardgrass [8]; [16]) was 0, the “Plant response rating, Rice” value (rice) was 0 and the “Plant response rating, Kochia” value (kochia [9]; [17]) was 0. The “Kochia plant response rating (0 to 100 scale)” value (kochia [9]; 125 g ai/ha) was 0, the “Plant response rating, Ryegrass, Italian” value (Italian ryegrass [10]; 31 g ai/ha) was 0 and the “Plant response rating, Ryegrass, Italian” value (Italian ryegrass [10]; 125 g ai/ha) was 0. For the same compound, the “Plant response rating, Ryegrass, Italian” value (Italian ryegrass [11]; [17]) was 0, the “Ryegrass … (0 to 100 scale)” value (Italian ryegrass [11]; 125 g ai/ha) was 0 and the “Plant response rating, Barnyardgrass” value (barnyardgrass [12]; [17]) was 0. For the same compound, the “Barnyardgrass plant response rating (0 to 100 scale, 0 is no effect, 100 is complete control)” value (barnyardgrass [12]; 125 g ai/ha) was 0, the “Plant response rating, Ducksalad” value (Heteranthera limosa) was 0 and the “Plant response rating, Ragweed” value (ragweed [13]; [17]) was 0. The “Ragweed plant response rating (0 to 100 scale)” value (ragweed [13]; 125 g ai/ha) was 0, the “Plant response rating, Corn” value (corn; [14]) was 0 and the “Plant response rating, Corn” value (corn; [16]) was 0.
